{
  "source": "paper PMC6381276",
  "about": "(mBio, 2019)",
  "target": "McpN (PA2788) chemoreceptor (Pseudomonas aeruginosa, UniProt Q9I055)",
  "sequence (Q9I055 44-179)": "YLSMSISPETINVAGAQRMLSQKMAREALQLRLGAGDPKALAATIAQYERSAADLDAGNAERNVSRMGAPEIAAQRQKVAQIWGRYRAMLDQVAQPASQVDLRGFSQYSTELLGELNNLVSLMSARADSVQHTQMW",
  "experiment": "biochemical",
  "data": [
    {"smiles": "O=[N+]([O-])O", "note": "[nitrate]", "values": [
      {"measurement": "Kd", "value": "47 ± 8", "unit": "µM"}
    ]}
  ]
}
